The text below walks through data of US4859664A, “Derivatives of 2,3,4,5,6,7-hexahydro-2,7-methano-1,5-benzoxazonines and -1,4-benzoxazonines, processes for their production and their use as pharmaceuticals” (priority 1986, dated 1989).

The nature of one series: hot plate test. The conditions noted are these: Mus musculus, sc; plate 54° C.; 30 and 60 min; limits in brackets; read-out: ED50 (50% increase of the reaction time). It is filed as in vivo, male NMRI mice. As for the experimental part: (§1) For the pharmacological investigations described in the following, there were used male NMRI mice with a weight of from 15 to 30 g. The animals were kept under usual laboratory conditions, randomised and subjected to a light-dark change with a 12 hour rhythm. They were given a standard feed and water ad libitum up to the commencement of the experiments.
(§2) The test compounds were administered in a volume of 10 ml./kg./body weight per mouse. As carrier, there was used physiological sodium chloride solution or a suspension of 0.5% tragacanth in physiological sodium chloride solution.
The experimental results are given as average values with a mean error of the average value (x±S.E.M.). The ED50 values were calculated according to Litchfield and Wilcoxon (J. Pharmacol. Exp. Ther., 96, 99/1949). The compounds were thereby tested in 4 dosages ([…]). […]
30 and 60 minutes after the subcutaneous administration of the test compounds, the experimental animals were placed on a metal plate, the surface temperature of which was kept constant at 54° C. The time was measured up to the commencement of a pain reaction (standing on the rear paws with licking and rubbing togeth4er of the front paws or jumping). In a preceding test, the average reaction time of the animals was determined from three measurements at intervals of, in each case, 15 minutes. […]

Series [1] is classed as in vivo, male NMRI mice. To be noted: ED50 p.o. / ED50 s.c. As for the experimental part:
[…]. They were given a standard feed and water ad libitum up to the commencement of the experiments.
as §2
(§3) The experimental results are given as average values with a mean error of the average value (x±S.E.M.). The ED50 values were calculated according to Litchfield and Wilcoxon (J. Pharmacol. Exp. Ther., 96, 99/1949). The compounds were thereby tested in 4 dosages (p≤0.5).
(§4) For the significance calculation, there was used Student's t test (see Angewandte Statistik, pub. Stringer Verlag, Berlin, Heidelberg, 242/1983), as well as the range sum test of Mann and Withney (Ann. Math. stat., 50, 1818/1947).
(§5) 1.1. In the acetic acid writhing test (see R. Koster et al., Fed. proc., 18, 412/1954), the typical stretching movements referred to as "writhing", were produced by the intraperitoneal administration of a 0.6% acetic acid solution. 30 minutes previously, the substance to be tested was administered subcutaneously (s.c.) or orally ([…].) to the animals. 3 minutes after administration of the acetic acid solution, the total number of stretching movements in a period of time of 10 minutes was ascertained. From the decrease of the stretching reactions due to the action of the test compound in comparison with non-pretreated control groups, there was determined the percentage inhibition action.

Series [2] can be described thus: testing for ataxia (rotating rod test). It is filed as in vivo, male NMRI mice. As for the experimental part:
as §1, §2
There was used the rotating rod test (see F. Gross et al., Schweiz. Med. Wschr., 85, 305/1955).
5 animals per dosage group were trained to keep themselves on a horizontally rotating rod made of synthetic resin (16 rpm). 40, 80 and 120 minutes after the subcutaneous administration of the test compounds, the animals were again tested. From the number of animals which fell off prematurely, there was determined the disturbance of the movement coordination.

A short description of series [3]: tonus reduction on striated musculature. It is filed as in vivo, male NMRI mice. As for the experimental part:
as §1, §2
6. Tonus reduction on striated musculature.
The test used is described by J. P. Chambon et al. (Arzneimittelforschung (Drug Research), 35 (II), (10), 1572/1985).
5 animals per dosage group were placed with their front paws on a horizontal metal rod (diameter 3 mm., length 20 cm.) which was fixed 30 cm. above a laboratory bench. Mice with normal muscle tonus climbed within 5 seconds on to the rod with at least one rear paw.
40, 80 and 120 minutes after the subcutaneous administration of the test compound, the animals were again tested for this ability and the number of incapable animals was recorded.

Series [4] in a line: antidepressive action: reserpine reversal test (tetrabenazine). It counts as in vivo, male NMRI mice. To be noted: 50 and 25 mg./kg. s.c. As for the experimental part:
as §1, §2
7. Antidepressive action.
There was used the reserpine reversal test (see G. Zettler, K. Mahler and F. Daniel, Naunyn-Schmiedeberg's Arch. Exp. Path. Pharmacol., 238, 468/1960; ibid. 236, 422/1958). 30 minutes after the subcutaneous administration of the test compounds, the animals (6 animals per dosage group) received subcutaneously 40 mg./kg. tetrabenazine dissolved in 0.5% aqueous ascorbic acid solution. 30 and 60 minutes after the tetrabenazine administration, the animals were placed on a vertical rod (length 90 cm., diameter 1.5 cm., coiled round with 0.2 cm. thick thread) and observed for 30 seconds. Those animals which remained motionless during this time were evaluated as being cataleptic. Previously, the degree of ptosis was assessed.

The format of series [5] is in vivo, male NMRI mice. The conditions noted are these: for % inhibition action ± SEM with naloxone: with naloxone hydrochloride 20 mg./kg. s.c.; for change in % (with vs without naloxone): given without sign. As for the experimental part:
They were given a standard feed and water ad libitum up to the commencement of the experiments.
as §2, §3, §4, §5
Naloxone-antagonistic action in the writhing test.
20 Minutes before the subcutaneous administration of the test compounds, the animals were given 20 mg./kg. naloxone hydrochloride subcutaneously. The further carrying out of the experiments was as described above.

Read-outs that look alike come from different tables or passages of the source.

`CC12CCNCC(C1)c1ccccc1O2` (stereo not drawn) [Example 6, 2,3,4,5,6,7-hexahydro-2-methyl-2,7-methano-1,5-benzoxazonine]: the ED50 in the series “hot plate test” is 13.8 mg/kg. In series [1], the “quotient p.o./s.c. (of ED50)” value amounted to 1.65. Further, in series [2] (25 mg/kg s.c.), the “change of the maintenance time in % compared with the control group, after 40 min.” value is 0%; the “change of the maintenance time in % compared with the control group, after 80 min.” value is on record as -8%; the “change of the maintenance time in % compared with the control group, after 120 min.” value worked out at 0%. In series [2] (50 mg/kg s.c.), the “change of the maintenance time in % compared with the control group, after 40 min.” value is -17%; the “change of the maintenance time in % compared with the control group, after 80 min.” value turned out to be 0%; the “change of the maintenance time in % compared with the control group, after 120 min.” value is given as -8%. In series [3] (25 mg./kg. s.c.), this molecule yielded a muscle-relaxing action of 13%. For the same molecule, the muscle-relaxing action in series [3] (50 mg./kg. s.c.) is 20%. Also, in series [4], the “influence on tetrabenazine-induced catalepsy” value is on record as “did not influence” and the “influence on tetrabenazine-induced ptosis” value was “did not influence”. Further, in series [5] (12.5 mg/kg s.c.), the “% inhibition action ± SEM with naloxone” value is on record as 39.7 ± 10.4%, the “% inhibition action ± SEM without naloxone” value is listed as 33.2 ± 3.2% and the “change in % (with vs without naloxone)” value is recorded as 6.5%. In addition, in series [5] (25 mg/kg s.c.), the “% inhibition action ± SEM with naloxone” value is listed as 65.5 ± 6.5%, the “% inhibition action ± SEM without naloxone” value is reported as 58.9 ± 10.1% and the “change in % (with vs without naloxone)” value turned out to be 6.6%. Moreover, in series [5] (50 mg/kg s.c.), the “% inhibition action ± SEM with naloxone” value is listed as 91.8 ± 3.3%, the “% inhibition action ± SEM without naloxone” value was determined as 84.6 ± 7.7% and the “change in % (with vs without naloxone)” value is given as 7.2%.
Consider `CC1NCCC2(C)CC1c1ccccc1O2` (stereo not drawn) [Example 9, 2,3,4,5,6,7-hexahydro-2,6-dimethyl-2,7-methano-1,5-benzoxazonine], for which the ED50 in the series “hot plate test” stood at 12 mg/kg. Besides, the “quotient p.o./s.c. (of ED50)” value in series [1] came to 1.45. For the same molecule, in series [2] (25 mg/kg s.c.), the “change of the maintenance time in % compared with the control group, after 40 min.” value is -13%; the “change of the maintenance time in % compared with the control group, after 80 min.” value was -17%; the “change of the maintenance time in % compared with the control group, after 120 min.” value is -12%. In addition, in series [2] (50 mg/kg s.c.), the “change of the maintenance time in % compared with the control group, after 40 min.” value was determined as 0%; the “change of the maintenance time in % compared with the control group, after 80 min.” value stood at 0%; the “change of the maintenance time in % compared with the control group, after 120 min.” value is -2%. Moreover, the muscle-relaxing action in series [3] (25 mg./kg. s.c.) stood at 13%. The molecule also yielded a muscle-relaxing action in series [3] (50 mg./kg. s.c.) of 20%. In series [4], the “influence on tetrabenazine-induced catalepsy” value was “did not influence” and the “influence on tetrabenazine-induced ptosis” value is “did not influence”. In series [5] (12.5 mg/kg s.c.), the “% inhibition action ± SEM with naloxone” value stood at 52.0 ± 1.5%, the “% inhibition action ± SEM without naloxone” value is on record as 57.0 ± 7.6% and the “change in % (with vs without naloxone)” value is 5.0%. In addition, in series [5] (25 mg/kg s.c.), the “% inhibition action ± SEM with naloxone” value worked out at 80.1 ± 6.8%, the “% inhibition action ± SEM without naloxone” value was 64.0 ± 5.0% and the “change in % (with vs without naloxone)” value is given as 16.1%. Besides, in series [5] (50 mg/kg s.c.), the “% inhibition action ± SEM with naloxone” value was found to be 88.4 ± 11.6%, the “% inhibition action ± SEM without naloxone” value was 84.9 ± 2.7% and the “change in % (with vs without naloxone)” value is 3.5%.

The term ED50 denotes the dose at which the effect has come halfway, by size or by number of responders.
